# How the values were obtained:
# Acetylcholinesterase [1] = target: T1, Acetylcholinesterase (Homo sapiens, UniProt P22303); conditions: at 10 µM
# Description: Inhibition of human erythrocyte AChE-induced Abeta (1 to 42) aggregation at 10 uM incubated for 24 hrs by thioflavin-T fluorescence assay
# in vitro [2] = conditions: human
# Description: Cytotoxicity against human SH-SY5Y cells assessed as cell viability at 40 uM after 24 hrs by MTT assay
# [3] = Permeability of the compound at 100 ug/ml incubated for 120 mins by PAMPA; type: ADME; conditions: read-out: Peff
# Cholinesterase = Cholinesterase (Equus caballus, UniProt P81908); experiment: Inhibition of equine serum BuChE using BTCI as substrate preincubated for 30 mins followed by substrate addition measured after 30 mins by Ellman assay
# in vitro [4] = conditions: human; remark: listed apart in the source
# Description: Cytotoxicity against human SH-SY5Y cells assessed as cell viability at 80 uM after 24 hrs by MTT assay
# Acetylcholinesterase [5] = target: T1, Acetylcholinesterase; experiment: Inhibition of human erythrocyte AChE using ATCI as substrate preincubated for 30 mins followed by substrate addition measured after 30 mins by Ellman assay
# T1 sequence (P22303 whole entry): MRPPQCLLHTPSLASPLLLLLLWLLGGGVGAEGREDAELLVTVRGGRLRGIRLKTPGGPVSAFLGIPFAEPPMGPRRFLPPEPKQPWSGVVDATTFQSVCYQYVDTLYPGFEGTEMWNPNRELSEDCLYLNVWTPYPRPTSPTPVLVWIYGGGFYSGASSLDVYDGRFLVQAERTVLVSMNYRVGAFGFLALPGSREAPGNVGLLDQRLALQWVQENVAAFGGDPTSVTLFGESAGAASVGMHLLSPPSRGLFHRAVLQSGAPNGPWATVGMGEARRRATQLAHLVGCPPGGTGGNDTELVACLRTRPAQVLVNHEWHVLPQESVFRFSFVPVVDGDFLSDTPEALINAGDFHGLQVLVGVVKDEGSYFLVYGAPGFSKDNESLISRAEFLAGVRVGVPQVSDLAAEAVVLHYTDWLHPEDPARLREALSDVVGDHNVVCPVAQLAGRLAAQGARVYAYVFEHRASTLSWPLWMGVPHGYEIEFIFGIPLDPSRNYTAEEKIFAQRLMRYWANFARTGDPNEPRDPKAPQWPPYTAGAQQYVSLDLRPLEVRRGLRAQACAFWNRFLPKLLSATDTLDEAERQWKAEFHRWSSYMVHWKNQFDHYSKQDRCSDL
# Cholinesterase, sequence (P81908 whole entry): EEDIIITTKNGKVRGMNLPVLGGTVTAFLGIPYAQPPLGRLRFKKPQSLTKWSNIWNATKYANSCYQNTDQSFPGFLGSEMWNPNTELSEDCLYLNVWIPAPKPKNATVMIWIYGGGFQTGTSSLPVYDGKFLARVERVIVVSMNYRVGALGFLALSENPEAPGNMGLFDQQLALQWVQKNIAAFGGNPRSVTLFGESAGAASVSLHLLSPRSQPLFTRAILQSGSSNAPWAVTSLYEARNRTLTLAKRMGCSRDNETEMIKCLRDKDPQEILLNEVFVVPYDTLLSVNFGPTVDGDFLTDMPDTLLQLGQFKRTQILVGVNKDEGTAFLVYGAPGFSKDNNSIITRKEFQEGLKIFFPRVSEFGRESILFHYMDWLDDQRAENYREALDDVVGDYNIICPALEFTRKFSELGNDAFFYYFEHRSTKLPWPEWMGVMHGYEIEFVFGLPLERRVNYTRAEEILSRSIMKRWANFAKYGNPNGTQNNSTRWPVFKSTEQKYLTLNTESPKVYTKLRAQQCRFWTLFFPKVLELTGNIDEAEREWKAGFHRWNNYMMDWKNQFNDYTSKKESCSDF
structure (smiles),measurement,setting,value
Fc1ccc(CN2CCC(CNc3nc(-c4ccc(Cl)cc4)c(-c4ccc(Cl)cc4)s3)CC2)c(Cl)c1,inhibition,Acetylcholinesterase [1],15%
same,"viability at 24 h, 40 µM",in vitro [2]; SH-SY5Y cells,92.7%
same,"Papp at 2 h, 100 ug/ml",[3],13.2 ×10⁻⁶ cm/s
same,IC50,Cholinesterase,740 nM
same,"viability at 24 h, 80 µM",in vitro [4]; SH-SY5Y cells,88.9%
same,IC50,Acetylcholinesterase [5],520 nM
Cc1ccc(-c2nc(NC(=O)C3CCN(Cc4cc(F)cc(F)c4)CC3)sc2-c2ccc(C)cc2)cc1,IC50,Cholinesterase,3510 nM
same,IC50,Acetylcholinesterase [5],2500 nM
N#Cc1ccccc1CN1CCC(C(=O)Nc2nc(-c3ccc(Cl)cc3)c(-c3ccc(Cl)cc3)s2)CC1,IC50,Cholinesterase,1590 nM
same,IC50,Acetylcholinesterase [5],1770 nM
COc1ccc(-c2nc(NC3CCN(Cc4ccc(C(F)(F)F)cc4)CC3)sc2-c2ccc(OC)cc2)cc1,inhibition,Acetylcholinesterase [1],18.9%
same,"viability at 24 h, 40 µM",in vitro [2]; SH-SY5Y cells,94.5%
same,"Papp at 2 h, 100 ug/ml",[3],8.6 ×10⁻⁶ cm/s
same,IC50,Cholinesterase,1680 nM
same,"viability at 24 h, 80 µM",in vitro [4]; SH-SY5Y cells,90.4%
same,IC50,Acetylcholinesterase [5],750 nM
Fc1ccc(CN2CCC(Nc3nc(-c4ccc(Cl)cc4)c(-c4ccc(Cl)cc4)s3)CC2)c(Cl)c1,inhibition,Acetylcholinesterase [1],27.5%
same,"viability at 24 h, 40 µM",in vitro [2]; SH-SY5Y cells,94.2%
same,"Papp at 2 h, 100 ug/ml",[3],8.4 ×10⁻⁶ cm/s
same,IC50,Cholinesterase,1970 nM
same,"viability at 24 h, 80 µM",in vitro [4]; SH-SY5Y cells,92.5%
same,IC50,Acetylcholinesterase [5],370 nM
Cc1ccc(CN2CCC(Nc3nc(-c4ccc(C)cc4)c(-c4ccc(C)cc4)s3)CC2)cc1,IC50,Cholinesterase,6030 nM
same,IC50,Acetylcholinesterase [5],1090 nM
N#Cc1ccc(CN2CCC(Nc3nc(-c4ccc(Cl)cc4)c(-c4ccc(Cl)cc4)s3)CC2)cc1,IC50,Cholinesterase,1720 nM
same,IC50,Acetylcholinesterase [5],1020 nM
O=C(Nc1nc(-c2ccc(Cl)cc2)c(-c2ccc(Cl)cc2)s1)C1CCN(Cc2cccc(F)c2)CC1,inhibition,Acetylcholinesterase [1],18.8%
same,"viability at 24 h, 40 µM",in vitro [2]; SH-SY5Y cells,93.6%
same,"Papp at 2 h, 100 ug/ml",[3],15.9 ×10⁻⁶ cm/s
same,IC50,Cholinesterase,720 nM
same,"viability at 24 h, 80 µM",in vitro [4]; SH-SY5Y cells,91.1%
same,IC50,Acetylcholinesterase [5],650 nM
O=C(Nc1nc(-c2ccc(Cl)cc2)c(-c2ccc(Cl)cc2)s1)C1CCN(Cc2ccc(OC(F)(F)F)cc2)CC1,IC50,Cholinesterase,2180 nM
same,IC50,Acetylcholinesterase [5],1380 nM
Cc1ccc(-c2nc(NCC3CCN(Cc4ccccc4C(F)(F)F)CC3)sc2-c2ccc(C)cc2)cc1,inhibition,Acetylcholinesterase [1],26.4%
same,"viability at 24 h, 40 µM",in vitro [2]; SH-SY5Y cells,93.5%
same,"Papp at 2 h, 100 ug/ml",[3],12.8 ×10⁻⁶ cm/s
same,IC50,Cholinesterase,2200 nM
same,"viability at 24 h, 80 µM",in vitro [4]; SH-SY5Y cells,91.7%
same,IC50,Acetylcholinesterase [5],400 nM
Cc1ccc(CN2CCC(Nc3nc(-c4ccc(Cl)cc4)c(-c4ccc(Cl)cc4)s3)CC2)cc1,IC50,Cholinesterase,> 10000 nM
same,IC50,Acetylcholinesterase [5],3190 nM
COc1ccc(-c2nc(NCC3CCN(Cc4ccccc4C(F)(F)F)CC3)sc2-c2ccc(OC)cc2)cc1,inhibition,Acetylcholinesterase [1],20.6%
same,"viability at 24 h, 40 µM",in vitro [2]; SH-SY5Y cells,94.2%
same,"Papp at 2 h, 100 ug/ml",[3],8.4 ×10⁻⁶ cm/s
same,IC50,Cholinesterase,8010 nM
same,"viability at 24 h, 80 µM",in vitro [4]; SH-SY5Y cells,90.1%
same,IC50,Acetylcholinesterase [5],690 nM
COc1ccc(-c2nc(NC(=O)C3CCN(Cc4ccccc4C(F)(F)F)CC3)sc2-c2ccc(OC)cc2)cc1,inhibition,Acetylcholinesterase [1],14.5%
same,"viability at 24 h, 40 µM",in vitro [2]; SH-SY5Y cells,92.4%
same,"Papp at 2 h, 100 ug/ml",[3],12.3 ×10⁻⁶ cm/s
same,IC50,Cholinesterase,1920 nM
same,"viability at 24 h, 80 µM",in vitro [4]; SH-SY5Y cells,93.1%
same,IC50,Acetylcholinesterase [5],680 nM
COc1ccc(CN2CCC(Nc3nc(-c4ccc(OC)cc4)c(-c4ccc(OC)cc4)s3)CC2)cc1,inhibition,Acetylcholinesterase [1],11.4%
same,"viability at 24 h, 40 µM",in vitro [2]; SH-SY5Y cells,92.1%
same,"Papp at 2 h, 100 ug/ml",[3],10.3 ×10⁻⁶ cm/s
same,IC50,Cholinesterase,2530 nM
same,"viability at 24 h, 80 µM",in vitro [4]; SH-SY5Y cells,89.5%
same,IC50,Acetylcholinesterase [5],770 nM
O=C(Nc1nc(-c2ccc(Cl)cc2)c(-c2ccc(Cl)cc2)s1)C1CCN(Cc2ccc(F)cc2Cl)CC1,IC50,Cholinesterase,> 10000 nM
same,IC50,Acetylcholinesterase [5],3700 nM
Fc1ccc(CN2CCC(CNc3nc(-c4ccc(Cl)cc4)c(-c4ccc(Cl)cc4)s3)CC2)c(C(F)(F)F)c1,IC50,Cholinesterase,3300 nM
same,IC50,Acetylcholinesterase [5],1240 nM
COc1ccc(-c2nc(NC(=O)C3CCN(Cc4ccccc4C#N)CC3)sc2-c2ccc(OC)cc2)cc1,IC50,Cholinesterase,3580 nM
same,IC50,Acetylcholinesterase [5],2800 nM
Cc1ccc(-c2nc(NCC3CCN(Cc4ccccc4C)CC3)sc2-c2ccc(C)cc2)cc1,inhibition,Acetylcholinesterase [1],16.2%
same,"viability at 24 h, 40 µM",in vitro [2]; SH-SY5Y cells,91.4%
same,"Papp at 2 h, 100 ug/ml",[3],10.6 ×10⁻⁶ cm/s
same,IC50,Cholinesterase,2510 nM
same,"viability at 24 h, 80 µM",in vitro [4]; SH-SY5Y cells,90.1%
same,IC50,Acetylcholinesterase [5],500 nM
COc1ccc(-c2nc(NCC3CCN(Cc4ccccc4C)CC3)sc2-c2ccc(OC)cc2)cc1,inhibition,Acetylcholinesterase [1],25.6%
same,"viability at 24 h, 40 µM",in vitro [2]; SH-SY5Y cells,91.6%
same,"Papp at 2 h, 100 ug/ml",[3],12.3 ×10⁻⁶ cm/s
same,IC50,Cholinesterase,2210 nM
same,"viability at 24 h, 80 µM",in vitro [4]; SH-SY5Y cells,87.2%
same,IC50,Acetylcholinesterase [5],590 nM
Cc1ccc(-c2nc(NC(=O)C3CCN(Cc4ccc(C(F)(F)F)cc4)CC3)sc2-c2ccc(C)cc2)cc1,IC50,Cholinesterase,2780 nM
same,IC50,Acetylcholinesterase [5],> 10000 nM
Cc1ccc(-c2nc(NC(=O)C3CCN(Cc4ccccc4C)CC3)sc2-c2ccc(C)cc2)cc1,IC50,Cholinesterase,1500 nM
same,IC50,Acetylcholinesterase [5],> 10000 nM
COc1ccc(-c2nc(NC(=O)C3CCN(Cc4ccc(F)cc4)CC3)sc2-c2ccc(OC)cc2)cc1,IC50,Cholinesterase,1730 nM
same,IC50,Acetylcholinesterase [5],1160 nM
COc1ccc(-c2nc(NCC3CCN(Cc4c(F)cccc4Cl)CC3)sc2-c2ccc(OC)cc2)cc1,inhibition,Acetylcholinesterase [1],27.2%
same,"viability at 24 h, 40 µM",in vitro [2]; SH-SY5Y cells,94.2%
same,"Papp at 2 h, 100 ug/ml",[3],12.2 ×10⁻⁶ cm/s
same,IC50,Cholinesterase,2150 nM
same,"viability at 24 h, 80 µM",in vitro [4]; SH-SY5Y cells,87.1%
same,IC50,Acetylcholinesterase [5],360 nM
COc1ccc(-c2nc(NC(=O)C3CCN(Cc4ccccc4C)CC3)sc2-c2ccc(OC)cc2)cc1,IC50,Cholinesterase,1850 nM
same,IC50,Acetylcholinesterase [5],1340 nM
Cc1ccc(-c2nc(NC(=O)C3CCN(Cc4ccccc4C(F)(F)F)CC3)sc2-c2ccc(C)cc2)cc1,IC50,Cholinesterase,1880 nM
same,IC50,Acetylcholinesterase [5],7570 nM
COc1ccc(CN2CCC(Nc3nc(-c4ccc(Cl)cc4)c(-c4ccc(Cl)cc4)s3)CC2)cc1,IC50,Cholinesterase,1570 nM
same,IC50,Acetylcholinesterase [5],1120 nM
Cc1ccc(-c2nc(NCC3CCN(Cc4ccc(F)cc4)CC3)sc2-c2ccc(C)cc2)cc1,inhibition,Acetylcholinesterase [1],25.8%
same,"viability at 24 h, 40 µM",in vitro [2]; SH-SY5Y cells,91.8%
same,"Papp at 2 h, 100 ug/ml",[3],10.1 ×10⁻⁶ cm/s
same,IC50,Cholinesterase,1950 nM
same,"viability at 24 h, 80 µM",in vitro [4]; SH-SY5Y cells,89.7%
same,IC50,Acetylcholinesterase [5],370 nM
Cc1ccc(-c2nc(NC(=O)C3CCN(Cc4cccc(F)c4)CC3)sc2-c2ccc(C)cc2)cc1,IC50,Cholinesterase,1970 nM
same,IC50,Acetylcholinesterase [5],> 10000 nM
Clc1ccc(-c2nc(NC3CCN(Cc4ccccc4)CC3)sc2-c2ccc(Cl)cc2)cc1,IC50,Cholinesterase,3300 nM
same,IC50,Acetylcholinesterase [5],1380 nM
Cc1ccc(-c2nc(NC3CCN(Cc4ccccc4)CC3)sc2-c2ccc(C)cc2)cc1,IC50,Cholinesterase,3590 nM
same,IC50,Acetylcholinesterase [5],1280 nM
Cc1ccc(-c2nc(NC(=O)C3CCN(Cc4ccc(F)cc4Cl)CC3)sc2-c2ccc(C)cc2)cc1,IC50,Cholinesterase,1600 nM
same,IC50,Acetylcholinesterase [5],> 10000 nM
COc1ccc(-c2nc(NC(=O)C3CCN(Cc4cccc(F)c4)CC3)sc2-c2ccc(OC)cc2)cc1,inhibition,Acetylcholinesterase [1],21.2%
same,"viability at 24 h, 40 µM",in vitro [2]; SH-SY5Y cells,94%
same,"Papp at 2 h, 100 ug/ml",[3],12.5 ×10⁻⁶ cm/s
same,IC50,Cholinesterase,1540 nM
same,"viability at 24 h, 80 µM",in vitro [4]; SH-SY5Y cells,90.3%
same,IC50,Acetylcholinesterase [5],570 nM
Cc1ccc(-c2nc(NC(=O)C3CCN(Cc4c(F)cccc4Cl)CC3)sc2-c2ccc(C)cc2)cc1,IC50,Cholinesterase,2770 nM
same,IC50,Acetylcholinesterase [5],2880 nM
O=C(Nc1nc(-c2ccc(Cl)cc2)c(-c2ccc(Cl)cc2)s1)C1CCN(Cc2cc(F)cc(F)c2)CC1,inhibition,Acetylcholinesterase [1],12%
same,"viability at 24 h, 40 µM",in vitro [2]; SH-SY5Y cells,95.6%
same,"Papp at 2 h, 100 ug/ml",[3],8.8 ×10⁻⁶ cm/s
same,IC50,Cholinesterase,3030 nM
same,"viability at 24 h, 80 µM",in vitro [4]; SH-SY5Y cells,92.8%
same,IC50,Acetylcholinesterase [5],640 nM
Cc1ccc(-c2nc(NC(=O)C3CCN(Cc4ccc([N+](=O)[O-])cc4)CC3)sc2-c2ccc(C)cc2)cc1,IC50,Cholinesterase,> 10000 nM
same,IC50,Acetylcholinesterase [5],2320 nM
COc1ccc(-c2nc(NC(=O)C3CCN(Cc4c(F)cccc4Cl)CC3)sc2-c2ccc(OC)cc2)cc1,inhibition,Acetylcholinesterase [1],16.6%
same,"viability at 24 h, 40 µM",in vitro [2]; SH-SY5Y cells,92.9%
same,"Papp at 2 h, 100 ug/ml",[3],8.2 ×10⁻⁶ cm/s
same,IC50,Cholinesterase,1570 nM
same,"viability at 24 h, 80 µM",in vitro [4]; SH-SY5Y cells,91.6%
same,IC50,Acetylcholinesterase [5],410 nM
Cc1ccc(-c2nc(NC(=O)C3CCN(Cc4ccc(C#N)cc4)CC3)sc2-c2ccc(C)cc2)cc1,IC50,Cholinesterase,5320 nM
same,IC50,Acetylcholinesterase [5],1280 nM
COc1ccc(-c2nc(NC(=O)C3CCN(Cc4ccc(F)cc4C(F)(F)F)CC3)sc2-c2ccc(OC)cc2)cc1,IC50,Cholinesterase,1780 nM
same,IC50,Acetylcholinesterase [5],1230 nM
O=C(Nc1nc(-c2ccc(Cl)cc2)c(-c2ccc(Cl)cc2)s1)C1CCN(Cc2ccccc2C(F)(F)F)CC1,IC50,Cholinesterase,3360 nM
same,IC50,Acetylcholinesterase [5],2770 nM
Cc1ccccc1CN1CCC(C(=O)Nc2nc(-c3ccc(Cl)cc3)c(-c3ccc(Cl)cc3)s2)CC1,IC50,Cholinesterase,1040 nM
same,IC50,Acetylcholinesterase [5],1100 nM
COc1ccc(-c2nc(NC(=O)C3CCN(Cc4cc(F)cc(F)c4)CC3)sc2-c2ccc(OC)cc2)cc1,IC50,Cholinesterase,> 10000 nM
same,IC50,Acetylcholinesterase [5],2450 nM
COc1cc2c(cc1OC)C(=O)C(CC1CCN(Cc3ccccc3)CC1)C2 (centres undefined) [DONEPEZIL],"viability at 24 h, 40 µM",in vitro [2]; sh-sy5y,96.9%
same,"viability at 24 h, 80 µM",in vitro [4]; sh-sy5y,92.3%
